Six compounds from article PMC5379193, “Pathogen recognition of a novel C-type lectin from Marsupenaeus japonicus reveals the divergent sugar-binding specificity of QAP motif” (Scientific Reports, 2017) can be followed below.

≈ marks a conversion by molar mass, not a printed value.

The target in the assay is T1, MjGCTL (rMjGCTL) (Penaeus japonicus, UniProt A0A1L7MZX5).
T1 construct: gene GCTL; secreted from Drosophila S2 cells (pMT/BiP/V5-His C), V5 and His tags kept, Ni-NTA purified; ~50 kDa, glycosylated; ORF 311 aa, 35 kDa predicted; LDLa domain plus CRD (QAP motif)
T1 sequence (A0A1L7MZX5 17-311): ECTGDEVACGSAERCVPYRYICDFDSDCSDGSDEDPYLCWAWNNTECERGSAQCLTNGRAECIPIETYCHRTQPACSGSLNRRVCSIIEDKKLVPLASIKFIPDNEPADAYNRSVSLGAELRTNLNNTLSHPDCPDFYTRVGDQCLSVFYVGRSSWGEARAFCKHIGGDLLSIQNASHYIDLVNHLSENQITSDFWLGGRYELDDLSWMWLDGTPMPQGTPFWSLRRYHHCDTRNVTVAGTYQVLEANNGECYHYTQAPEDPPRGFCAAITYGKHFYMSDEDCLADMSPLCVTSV
Nature of the assay: inhibition of bacterial agglutination by purified rMjGCTL. It counts as biochemical. Particulars: V. parahaemolyticus named for Man/Gal/Glc; TBS with 10 mM CaCl2, pH 7, 25 °C; 1 h preincubation; Ca2+-dependent. An excerpt:
inhibition of bacterial agglutination by purified rMjGCTL on MjGCTL (rMjGCTL)
`OC[C@H]1OC(O)[C@H](O)[C@@H](O)[C@@H]1O` (stereo partly drawn) [D-glucose] displayed a Minimum inhibitory concentration of 100 mM (≈ 18 mg/mL).

With `C[C@@H]1OC(O)[C@@H](O)[C@H](O)[C@@H]1O` (stereo partly drawn) [Fucose], the Minimum inhibitory concentration is given as 250 mM (≈ 41 mg/mL).

The compound `OC[C@H]1O[C@@H](O[C@H]2[C@H](O)[C@@H](O)C(O)O[C@@H]2CO)[C@H](O)[C@@H](O)[C@H]1O` (stereo partly drawn) [Lactose] showed a Minimum inhibitory concentration of 250 mM (≈ 85.6 mg/mL).

Compound `OC[C@H]1O[C@H](O[C@H]2[C@H](O)[C@@H](O)C(O)O[C@@H]2CO)[C@H](O)[C@@H](O)[C@@H]1O` (stereo partly drawn) [Maltose] yielded a Minimum inhibitory concentration of 125 mM (≈ 42.8 mg/mL).

Take `CC(=O)N[C@H]1C(O)O[C@H](CO)[C@@H](O)[C@@H]1O` (stereo partly drawn) [N-Acetyl-D-glucosamine]: the Minimum inhibitory concentration turned out to be 250 mM (≈ 55.3 mg/mL).

Take `OC1OC[C@@H](O)[C@H](O)[C@H]1O` (stereo partly drawn) [Xylose]: the Minimum inhibitory concentration amounted to 62.5 mM (≈ 9.38 mg/mL).
